# Peptide text beside a SMILES is read from it.
# Legend:
# mouse tail bleeding = test: Tail bleeding time; format: in vivo, C57BL/6J mice; details: n = 6; for tail bleeding time: 10 min after administration, vehicle 89.8 s
# Experimental: (§1) The C57BL/6J mice (male, 6–8 weeks old) were purchased from Beijing Vital River Laboratory Animal Technology Co., Ltd. (Beijing, China). All animal studies were performed under the approval of the Ethics Committee of the Laboratory Animal Welfare of the Kunming Institute of Zoology, Chinese Academy of Sciences (IACUC-RE-2025-03-010).
# The mouse tail-bleeding assay was performed to evaluate the bleeding risk associated with GC38 treatment. Male C57BL/6J mice (6–8 weeks, n = 6 per group) were randomized to receive intravenous injection of PBS (negative control), GC38 (2 or 4 mg/kg in PBS), or heparin sodium (1000 U/kg, positive control). The assay was conducted 10 min after administration. Mice were anesthetized, and a 2 mm segment of the tail tip was surgically transected using a sterile scalpel. Immediately after the incision, the tail was immersed in prewarmed PBS (37 °C) to facilitate blood flow. Bleeding time was recorded from the moment of the incision until the complete cessation of bleeding (no blood flow for 60 s).
# [1] = tested on: human plasma, extrinsic clotting cascade; test: Prothrombin time (PT); format: biochemical; details: GC38 0.1-10 μM; human plasma 20 μL, pre-incubation 5 min at 37 °C, PT reagent; scattered light; n = 3
# Experimental: (§2) APTT and PT were measured with commercially available kits according to the manufacturer’s instructions. For APTT determination, 20 μL human plasma was pre-incubated with GC38 (0.1, 1, and 10 µM) at 37 °C for 5 min, and then 30 μL APTT reagent was added and incubated for another 5 min. Subsequently, 40 μL pre-warmed CaCl2 (37 °C) was added to initiate the intrinsic clotting cascade. The intensity of the scattered light was monitored until the signals reached saturation. For PT determination, 20 μL human plasma was pre-incubated with GC38 (0.1, 1, and 10 µM) at 37 °C for 5 min. Then, 75 μL PT reagent was added to initiate the extrinsic clotting cascade. The intensity of the scattered light was monitored until the signals reached saturation. The coagulation time (APTT or PT) was defined as the time point at which the scattered light signal reached the midpoint between the baseline and maximum amplitude. All concentrations were tested in triplicate. Results are shown as mean values, and the time at maximum reactive velocity was also reported.
# [2] = tested on: cortical photothrombotic stroke in mice; test: Rose Bengal-mediated cortical photothrombotic stroke (CPS) model; format: in vivo, mouse; details: n = 6; for blood flow reduction (cerebral): laser speckle perfusion, vehicle 40.1%
# Experimental: as §1
# The Rose Bengal-mediated CPS model was employed to induce focal cerebral ischemia in mice. Rose Bengal (50 mg/kg), a photosensitive dye, was administered intravenously 1 h before the surgery, followed by an intravenous injection of PBS (vehicle control), GC38 (2 or 4 mg/kg), and heparin sodium (1000 U/kg) 10 min before the surgery. Briefly, mice were anesthetized and secured in a stereotaxic frame. A midline scalp incision was made to expose the skull, followed by illumination with a 562 nm yellow-green laser (R-LG561-100-A5, RWD Life Science, Shenzhen, China) for 7 min. This process generated reactive oxygen species, resulting in endothelial damage and subsequent thrombus formation. Post-illumination, the scalp was sutured, and mice were placed on a warming pad for recovery. Cerebral ischemia severity was evaluated using the LSP imaging system, and the 15-day survival rates after ischemia induction were recorded.
# [3] = tested on: FeCl3-induced carotid artery thrombosis in mice; test: FeCl3-induced carotid artery thrombosis model; format: in vivo, C57BL/6J mice; details: for blood flow reduction, carotid artery: 10 min before FeCl3, n = 6
# Experimental: as §1
# Male C57BL/6J mice (6–8 weeks old, n = 6 per group) were randomly assigned to groups receiving intravenous injections of PBS (vehicle control), GC38 (2 or 4 mg/kg in PBS), and heparin sodium (1000 U/kg), respectively. Ten minutes post-injection, mice were anesthetized with 2% isoflurane inhalation. The right carotid artery was surgically exposed, and endothelial injury was induced by applying a 1 × 2 mm filter paper saturated with 10% (w/v) FeCl3 solution for 30 s. Real-time blood flow was monitored using a real-time laser speckle perfusion (LSP) imaging system (RWD Life Science, Shenzhen, China) with SIM BFI software (SIM BFI HR Pro, Simopto, Beijing, China). Thrombosis progression and vessel occlusion were evaluated using real-time ultrasound imaging of the region of interest at baseline (before injury), 5, and 10 min (post-injury). The perfusion unit was recorded to quantify the blood flow. Vessel occlusion was defined as a sustained reduction in perfusion units to ≤10% of baseline for at least 3 min. Data are presented as mean ± SEM.
# [4] = tested on: human plasma, intrinsic clotting cascade; test: Activated partial thromboplastin time (APTT); format: biochemical; details: GC38 10 μM; human plasma 20 μL, pre-incubation 5 min at 37 °C, APTT reagent 5 min, CaCl2; scattered light; mean, n = 3
# Experimental: as §2
smiles,measurement,setting,value
"CSCC[C@@H]1NC(=O)[C@H](CC(N)=O)NC(=O)CNC(=O)CNC(=O)[C@H](Cc2c[nH]cn2)NC(=O)[C@H](CCCNC(=N)N)NC(=O)CNC(=O)[C@@H]2CSSC[C@@H]3NC(=O)[C@H](CCCNC(=N)N)NC(=O)[C@H](C)NC(=O)CNC(=O)[C@H](CCCCN)NC(=O)CNC(=O)[C@H](CO)NC(=O)[C@@H](NC(=O)CN)CSSC[C@H](NC(=O)[C@H](CSSC[C@@H](C(=O)N[C@@H](CCC(=O)O)C(=O)N[C@@H](Cc4c[nH]c5ccccc45)C(=O)N[C@@H](CC(N)=O)C(=O)N[C@@H](Cc4c[nH]c5ccccc45)C(=O)N[C@@H](CCCCN)C(=O)N[C@H](C(=O)NCC(=O)O)[C@@H](C)O)NC(=O)[C@H](CO)NC(=O)[C@H](CCCCN)NC(=O)[C@H](Cc4ccc(O)cc4)NC1=O)NC(=O)[C@H](CCCCN)NC(=O)[C@H](CO)NC(=O)[C@@H]1CCCN1C(=O)[C@H](C)NC3=O)C(=O)N[C@@H](CO)C(=O)NCC(=O)N[C@@H](CC(C)C)C(=O)N[C@@H](CO)C(=O)N2 [GC38] (HELM PEPTIDE1{G.C.S.G.K.G.A.R.C.A.P.S.K.C.C.S.G.L.S.C.G.R.H.G.G.N.M.Y.K.S.C.E.W.N.W.K.T.G}$PEPTIDE1,PEPTIDE1,2:R3-15:R3|PEPTIDE1,PEPTIDE1,9:R3-20:R3|PEPTIDE1,PEPTIDE1,14:R3-31:R3$$$V2.0)",tail bleeding time,mouse tail bleeding; GC38 2 mg/kg i.v.,97.6 s
same,tail bleeding time,mouse tail bleeding; GC38 4 mg/kg i.v.,100.6 s
same,tail bleeding time versus vehicle control,mouse tail bleeding; GC38 2 and 4 mg/kg i.v.,comparable to the vehicle control group
same,prothrombin time (PT) effect,[1],no apparent effects on prothrombin time (PT)
same,blood flow reduction (cerebral),[2]; GC38 2 mg/kg i.v. 10 min before surgery,22.0%
same,blood flow reduction (cerebral),[2]; GC38 4 mg/kg i.v. 10 min before surgery,6.4%
same,microvascular occlusion and ischemic lesions,[2]; GC38 4 mg/kg i.v.,delayed microvascular occlusion and alleviated the formation of ischemic lesions
same,15-day survival rate,[2]; versus untreated group,improved the 15-day survival rate of mice
same,FeCl3-induced vascular occlusion,"[3]; 2 and 4 mg/kg i.v., Doppler flowmetry / laser speckle perfusion",alleviated FeCl3-induced vascular occlusion in mice
same,"blood flow reduction, carotid artery","[3]; GC38 2 mg/kg i.v., 5 min after 10% FeCl3",20.6%
same,"blood flow reduction, carotid artery","[3]; GC38 2 mg/kg i.v., 10 min after 10% FeCl3",44.0%
same,"blood flow reduction, carotid artery","[3]; GC38 4 mg/kg i.v., 5 min after 10% FeCl3",11.8%
same,"blood flow reduction, carotid artery","[3]; GC38 4 mg/kg i.v., 10 min after 10% FeCl3",29.4%
same,APTT extension versus control,[4],1.4 fold
